Results: PubChem BioAssay AID1035470 (Broad Institute, 2014)
Records with an inconclusive call do not appear. Active and inactive are the calls of the source.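 How the source made its calls: active means compound lowering the normal-ribosome reporter at least twice as much as the humanized-ribosome reporter, growth loss under a set limit; inconclusive means no clear call, values can overlap the other calls; inactive means the rest.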

Test system: E. coli WT-GFP vs G2058-humanized RFP, fluorescence, 24 h
Experiment: growth inhibition of wild-type GFP E. coli versus G2058-humanized strain, dose response, G2058 mutant RFP vs wild-type GFP, cherry-pick, two tests (AID 1035470)
[1] = E. coli WT-GFP vs G2058-humanized RFP mixed culture, total growth OD600, 24 h
[2] = measured here: G2058 humanized mutant RFP growth

Structure (SMILES)	AC50 [1] [µM]	AC50	AC50 [2] [µM]
Cc1nn2c(NCc3ccccn3)cc(C(C)C)nc2c1-c1ccccc1	> 100		
O=C(C[n+]1cc(-c2ccc(Cl)c(Cl)c2)n2c1CCC2)OCc1ccccc1	> 100	> 100 µM (inactive)	
O=[N+]([O-])c1ccccc1Oc1ccc(Cl)c2cccnc12		> 100 µM (inactive)	
COc1cccc(C(=O)Nc2nnc(S(=O)(=O)N(C)Cc3ccccc3)s2)c1	> 100	> 100 µM (inactive)	
Cc1cc([N+](=O)[O-])nn1CC(=O)Nc1cc(F)ccc1F		> 100 µM (inactive)	
COc1cccc(S(=O)(=O)N2CCCCN3[C@H](CO)[C@H](c4ccc(C#CC(C)C)cc4)[C@@H]3C2)c1	> 100	> 100 µM (inactive)	
COc1ccc2c(c1)c1ncn(Cc3ccccn3)c(=O)c1n2C	> 100	> 100 µM (inactive)	
COc1ccc(OC)c(-c2csc(NC(=O)C3COc4ccccc4O3)n2)c1 (centres undefined)	> 100	> 100 µM (inactive)	
CCCC(=O)Nc1sc2c(c1C(=O)Nc1ccccn1)CCCC2	> 100	> 100 µM (inactive)	
O=C(O)CC1(CC(=O)Nc2ccc3sccc3c2)CCCCC1		> 100 µM (inactive)	
Cc1ccccc1-n1c([C@@H]2C[C@H]2c2ccccc2)n[nH]c1=S	> 100		
CCCCCCC(=O)N1CCCC(c2nc(-c3cccc(OC)c3)no2)C1 (centres undefined)		> 100 µM (inactive)	> 100
Cc1ccc(NC(=O)c2ccc([N+](=O)[O-])s2)cc1S(=O)(=O)N1CCOCC1	> 100	> 100 µM (inactive)	
Cc1ccc(C)c(N2CCN(C(=O)CCS(=O)(=O)c3ccc4c(c3)oc(=O)n4C)CC2)c1	> 100		
CCN(CC(=O)Nc1ccccc1OC)CC(=O)Nc1c(Cl)ccc(C)c1Cl	> 100	> 100 µM (inactive)	
CCOC(=O)c1ccc(CC(=O)c2oc3cc(O)ccc3c2C)o1		> 100 µM (inactive)	
Cc1ccccc1OCc1nc2ccccc2n1C		> 100 µM (inactive)	
C[C@@H]1CN([C@@H](C)CO)C(=O)c2cc(NC(=O)Nc3cccc4ccccc34)ccc2O[C@@H](C)CCCCO[C@H]1CN(C)C(=O)CCCN(C)C		> 100 µM (inactive)	
CCn1c(-c2ccccc2Cl)nn(CC(=O)Nc2ccccc2OC)c1=S		> 100 µM (inactive)	
COc1ccccc1OCC(=O)Nc1ccc(S(=O)(=O)N2CCCCCC2)cc1	> 100	> 100 µM (inactive)	
CC[N+](CC)(CC#Cc1ccccc1)CC#Cc1ccccc1	> 100	> 100 µM (inactive)	
CCOC(=O)c1cccc(OS(=O)(=O)Cc2ccccc2)c1	> 100		

Structure (SMILES)	AC50 [1] [µM]	AC50	AC50 [2] [µM]
CCN(CC)c1nc(Oc2ccc(C(=O)OC)cc2)nc(N2CCOCC2)n1		> 100 µM (inactive)	
Nc1nc(Nc2ccccc2F)nc(N2CCOCC2)c1[N+](=O)[O-]		> 100 µM (inactive)	
O=C(CCCSc1nc2ccccc2s1)NCc1ccc2c(c1)OCO2		> 100 µM (inactive)	
CCCC#C/C(CCC)=C1\c2ccccc2C(=O)N1c1ccccc1	> 100	> 100 µM (inactive)	
CC(C)(C)C1CCC(C(=O)OCC(=O)N2CCN(C(=O)c3ccco3)CC2)CC1 (centres undefined)		> 100 µM (inactive)	
COc1cc(OC)cc(C(=O)Nc2ccc(C(=O)Nc3ccccc3OC)cc2)c1	> 100	> 100 µM (inactive)	
C[C@@H]1CN([C@@H](C)CO)C(=O)CCCn2nncc2CO[C@H]1CN(C)C(=O)Nc1cccc(C(F)(F)F)c1	> 100		
CCOC(=O)C1NN=C(C(=O)c2ccccc2)C1c1ccc(OC)cc1 (centres undefined)	> 100		
O=c1[nH]c2cc([N+](=O)[O-])ccc2c2ccccc12	> 100	> 100 µM (inactive)	> 100
CCOC(=O)c1sc(NC(=O)CN2CCN(c3ccccc3)CC2)nc1C	> 100	> 100 µM (inactive)	
Cc1cc(C(=O)NCCC2=CCCCC2)ccc1[N+](=O)[O-]	> 100	> 100 µM (inactive)	
COc1ccc(-n2c(-c3ccc(C)cc3)nc3ccccc3c2=O)cc1		> 100 µM (inactive)	
COc1ccc(CN2C(=O)CC(Cc3cc(C)cc(C)c3)C2=O)cc1OC (centres undefined)	> 100		
CCOc1ccc2nc(SCC(=O)Nc3nonc3C)[nH]c2c1		> 100 µM (inactive)	
O=C(Nc1cccc(Cl)c1)N1C[C@@H]2[C@H](c3ccccc31)[C@H](CO)N2Cc1ccncc1	> 100	> 100 µM (inactive)	
N#Cc1c(N)nc(SCc2ccccc2)c(C#N)c1-c1ccco1		> 100 µM (inactive)	
CCc1cc2cc(OC)ccc2nc1SCC(=O)Nc1cc(OC)c(OC)cc1C(=O)O	> 100	> 100 µM (inactive)	
COC(=O)c1sc(C(C)(C)C)cc1CS(=O)(=O)c1ccc(Cl)cc1	> 100	> 100 µM (inactive)	
COc1ccc(C#Cc2ccc([C@H]3[C@@H](CO)N4CCCCN(C(=O)Nc5cccc(F)c5)C[C@H]34)cc2)cc1	> 100		
CC(=O)c1ccc(OCC(=O)Nc2ccc3c(c2)CCC3)cc1	> 100	> 100 µM (inactive)	
CN(Cc1nnc(-c2ccc(F)cc2)o1)c1ccccc1	> 100	> 100 µM (inactive)	
N#Cc1ccc(C(=O)Nc2ccn(-c3ccccc3)n2)cc1		> 100 µM (inactive)	

Structure (SMILES)	AC50 [1] [µM]	AC50	AC50 [2] [µM]
N#CCC(=O)Nc1ccc(C(=O)OCC(=O)Nc2ccc3ccccc3c2)cc1		> 100 µM (inactive)	
O=C(NCc1ccc2c(c1)OCO2)c1sccc1Br	> 100	> 100 µM (inactive)	
Nc1ccc(C(=O)OCCc2ccccc2)cc1		> 100 µM (inactive)	45.9
COC(=O)c1ccc(OCC(=O)c2ccccc2OC)cc1	> 100	> 100 µM (inactive)	
CCC1CCCCN1C(=O)CSc1nnc(-c2cccc(Cl)c2)o1 (centres undefined)	> 100		
CN(C)S(=O)(=O)c1ccc(Cl)c(C(=O)OCC(=O)NC(=O)c2cccn2C)c1		> 100 µM (inactive)	
CCOC(=O)c1ccc(NC(=O)COc2ccc(CNCCO)cc2OCC)cc1		> 100 µM (inactive)	
CC1Cc2cc(S(=O)(=O)N3CCN(c4cccc(Cl)c4)CC3)ccc2N1C(=O)C1CC1 (centres undefined)	> 100		
c1ccc(Nc2ccc3ccccc3c2)cc1		> 100 µM	> 100
Nc1[nH]c(C(=O)c2ccccc2)c(-c2ccc(Br)cc2)c1C(=O)c1cccs1	> 100	> 100 µM (inactive)	
COc1ccc(C(=O)N(c2ccccc2)c2nccc3ccccc23)cc1OC		> 100 µM (inactive)	
CC(C)(C)S(=O)(=O)Cc1nc(-c2ccc(Cl)c(Cl)c2)cs1			38.5
COc1ccccc1CNC(=O)CN1C(=O)NC(c2ccccc2)(c2ccccc2)C1=O	> 100	> 100 µM (inactive)	
CC(C)(C)CC(=O)Nc1ccccc1N1CCN(c2ccccc2)CC1		> 100 µM (inactive)	
CN(C)CCNc1ncnc2c1sc1nc(N3CCCC3)c3c(c12)CC(C)(C)OC3	> 100	> 100 µM (inactive)	
Cc1ccc(C)c(-c2[nH]ncc2CN2CCCC(CO)(Cc3ccccc3C)C2)c1 (centres undefined)	> 100	> 100 µM (inactive)	
CC[n+]1c(C)cc2c(sc3ccccc32)c1C	> 100		> 100
CN(C)C(CNS(=O)(=O)c1cc([N+](=O)[O-])ccc1Cl)c1ccco1 (centres undefined)		> 100 µM (inactive)	
COc1cccc(CNC(=O)CCSCc2ccccc2F)c1		> 100 µM (inactive)	> 100
O=C(OCC1COc2ccccc2O1)c1ccccc1F (centres undefined)			> 100
Cn1nc(C(=O)Nc2cccc(S(=O)(=O)N3CCCCC3)c2)c2ccccc2c1=O	> 100	> 100 µM (inactive)	
O=C(CSc1nnc(-c2ccccc2F)n1C1CC1)Nc1cccnc1Cl		> 100 µM (inactive)	

Structure (SMILES)	AC50 [1] [µM]	AC50	AC50 [2] [µM]
CC(C)(C)NC(=O)C(c1ccncc1)N(Cc1ccc(F)cc1)C(=O)c1ccc(-c2ccccc2)[nH]1 (centres undefined)	> 100		
CC(=O)N1CCN(c2nc(-c3cccs3)nc3ccccc23)CC1		> 100 µM (inactive)	
Cc1cc(C(=O)Nc2ccc3ccccc3c2)c(C)o1	> 100	> 100 µM (inactive)	
Cc1ccccc1S(=O)(=O)c1cc2ccccc2nc1N	> 100		
Cc1ccc(-c2c(=O)n(O)c3ccccc3[n+]2[O-])cc1			> 100
CC(=O)Nc1ccc(OCc2nnc(-c3ccccc3)o2)cc1	> 100	> 100 µM (inactive)	
COc1ccccc1-c1cc2nc(NCCc3ccncc3)ccn2n1	> 100	> 100 µM (inactive)	
COc1cccc(NC(=O)CSc2nc3c(sc4ccccc43)c(=O)n2CCN(C)C)c1		> 100 µM (inactive)	
Cc1cccc(C)c1-n1nnnc1C1(C)CCC(=O)N1Cc1cccs1 (centres undefined)		> 100 µM (inactive)	
CC1CCCCN1CC(O)COCCC12CC3CC(CC(C3)C1)C2 (centres undefined)	> 100	> 100 µM (inactive)	
O=C(COC(=O)CNC(=O)c1ccc(F)cc1)Nc1cccc(S(=O)(=O)N2CCCC2)c1	> 100		
COC(=O)CNC(=O)COC(=O)c1ccc(Cl)nc1	> 100		
O=C(COC(=O)c1ccc([N+](=O)[O-])o1)NC12CC3CC(CC(C3)C1)C2		> 100 µM (inactive)	
CCOc1ccccc1OCCCC(=O)N1CCN(S(=O)(=O)c2cc(F)ccc2F)CC1		> 100 µM (inactive)	
N#Cc1ccc(-c2ccc(C3[C@H]4CNC[C@@H]3N4S(=O)(=O)c3ccc(-c4ccccc4)cc3)cc2)cc1 (some centres undefined)	> 100		
CC1CCC2(CC1)SCC(=O)N2c1ccc(F)cc1 (centres undefined)	> 100	> 100 µM (inactive)	35.3
O=C(O)CC(CC(=O)Nc1ccc2ccccc2n1)c1ccccc1 (centres undefined)			> 100
C[C@@H]1CCCCO[C@@H](CN(C)C)[C@H](C)CN([C@@H](C)CO)C(=O)c2cc(NC(=O)Nc3cccc4ccccc34)ccc2O1	> 100		
COC(=O)c1ccc(C(=O)Nc2ccc3nc(-c4ccncc4)[nH]c3c2)cc1	> 100	> 100 µM (inactive)	
O=C(Nc1ccc(C(=O)Nc2ccccc2Cl)cc1)c1cccnc1		> 100 µM (inactive)	8.17
COc1ccc(C(=O)C[n+]2ccc3c(c2)nc(-c2cc(OC)c(OC)cc2OC)n3C)cc1	> 100		
O=C(Nc1ccc(F)c(Cl)c1)C1CC2CCC1C2 (centres undefined)		> 100 µM (inactive)	
